Experimental data: US12240818B2, “Crystalline forms of plasma kallikrein inhibitors” (Rezolute, Inc., priority 2019, dated 2025)
Each block holds one molecule with its values, some of them ahead of it.

Key:
[1] = test system: model of hemorrhagic stroke; conditions: cited from earlier work
[2] = test system: rat model of ischemic stroke; conditions: cited from earlier work
[3] = test system: angiotensin-II-treated rodents; conditions: cited from earlier work
[4] = test system: animal model of ischemic stroke; conditions: cited from earlier work
[5] = test system: patients with hereditary angioedema; conditions: cited from earlier work
[6] = Aqueous solubility of solid forms; format: physicochemical; conditions: for aqueous solubility: at 25° C., acetate
[7] = Compression stability of crystalline forms (XRPD, TGA, DSC); format: physicochemical; conditions: compression under 11×10^5 N force for about 25-28 hours; acetate
Description: X-Ray Powder Diffraction patterns were collected under ambient conditions (about 20° C.) on a PANalytical X'Pert PRO X-ray diffractometer (Malvern Panalytical, Malvern, UK) using Cu Kα radiation (45 kV, 40 mA), θ-θ goniometer, focusing mirror, divergence slit (½″), Soller slits at both incident and divergent beam (4 mm), a transmission foil sample stage (Kapton® polyimide, 12.7 μm thickness film), and a PIXcel detector. The software used for data collection was X'Pert Data Collector, version 2.2f, and the data was presented using X'Pert Data Viewer, version 1.2d. The data collection range was 2.994-35°2θ with a continuous scan speed of 0.202004° s^−1. Differential scanning calorimetry data was collected on a PerkinElmer Pyris 6000 DSC equipped with a 45 position sample holder. The instrument was verified for energy and temperature calibration using certified indium. In the examples below, a predefined amount of the sample (0.5-3.0 mg) was placed in a pin holed aluminum pan and heated at 20° C./min from 30° C. to 350° C., or varied as experimentation dictated. A purge of dry nitrogen at 20 mL/min was maintained over the sample. The instrument control, data acquisition and analysis were performed with Pyris Software v11.1.1 revision H. Thermo-Gravimetric Analysis data was collected on a PerkinElmer Pyris 1 TGA equipped with a 20 position auto-sampler. The instrument was calibrated using a certified weight and certified Alumel and Perkalloy for temperature. In the examples below, a predefined amount of the sample (˜5 mg) was loaded onto a pre-tared aluminum crucible and was heated at 20° C./min from ambient temperature to 400° C. unless otherwise stated. A nitrogen purge at 20 mL/min was maintained over the sample. The instrument control, data acquisition and analysis were performed with Pyris Software v11.1.1 revision H. The manufacturing process for solid dosage forms can require high compression and/or grinding, which may cause a change in crystal structure for some compounds. Compound 1 Form I and Form II were subjected to compression under 11×10^5N force for about 25-28 hours to assess the impact of compression upon the form stability of these crystalline forms.

[8] = Grinding stability of crystalline forms (XRPD, thermal); format: physicochemical
Description: X-Ray Powder Diffraction patterns were collected under ambient conditions (about 20° C.) on a PANalytical X'Pert PRO X-ray diffractometer (Malvern Panalytical, Malvern, UK) using Cu Kα radiation (45 kV, 40 mA), θ-θ goniometer, focusing mirror, divergence slit (½″), Soller slits at both incident and divergent beam (4 mm), a transmission foil sample stage (Kapton® polyimide, 12.7 μm thickness film), and a PIXcel detector. The software used for data collection was X'Pert Data Collector, version 2.2f, and the data was presented using X'Pert Data Viewer, version 1.2d. The data collection range was 2.994-35°2θ with a continuous scan speed of 0.202004° s^−1.
Differential scanning calorimetry data was collected on a PerkinElmer Pyris 6000 DSC equipped with a 45 position sample holder. The instrument was verified for energy and temperature calibration using certified indium. In the examples below, a predefined amount of the sample (0.5-3.0 mg) was placed in a pin holed aluminum pan and heated at 20° C./min from 30° C. to 350° C., or varied as experimentation dictated. A purge of dry nitrogen at 20 mL/min was maintained over the sample. The instrument control, data acquisition and analysis were performed with Pyris Software v11.1.1 revision H.
Thermo-Gravimetric Analysis data was collected on a PerkinElmer Pyris 1 TGA equipped with a 20 position auto-sampler. The instrument was calibrated using a certified weight and certified Alumel and Perkalloy for temperature. In the examples below, a predefined amount of the sample (˜5 mg) was loaded onto a pre-tared aluminum crucible and was heated at 20° C./min from ambient temperature to 400° C. unless otherwise stated. A nitrogen purge at 20 mL/min was maintained over the sample. The instrument control, data acquisition and analysis were performed with Pyris Software v11.1.1 revision H.
Samples of both Form I and Form II (about 100 mg each) were subjected to grinding operations to assess the impact on solid form and observed microscopy. It was of interest to note whether amorphous content was generated, and to review the impact upon water content for the batches, especially with regards to Form II hydrate.

[9] = test system: mouse model of middle cerebral artery occlusion; conditions: cited from earlier work

Molecule: CC(=O)O.N=C(N)c1ccc(CNC(=O)c2cnn(Cc3ccccc3)c2)cc1 [Compound 1, 1-benzyl-N-(4-carbamimidoylbenzyl)-1H-pyrazole-4-carboxamide acetate salt]
expansion of intracerebral hemorrhage [1]: reduce
infarction volume and cerebrovascular edema [2]: reduce infarction volume and cerebrovascular edema
retinal vascular permeability [3]: reduce retinal vascular permeability

Molecule: Ecallantide
brain edema, infarct volume and neurological deficits [4]: reduced brain edema, infarct volume and neurological deficits
effect on hereditary angioedema [5]: alleviates edema

Molecule: Hoe-140 [reference compound]
retinal vascular permeability [3]: reduce retinal vascular permeability

solubility ([6]; water, 25 °C): ~8300 µg/mL
TGA thermograph change following compression [7]: no change in the TGA thermograph
stability under manual stress ([8]; compression and grinding, summary): superior stability to hydrated Form II
Molecule: CC(=O)O.N=C(N)c1ccc(CNC(=O)c2cnn(Cc3ccccc3)c2)cc1 [Form I, 1-benzyl-N-(4-carbamimidoylbenzyl)-1H-pyrazole-4-carboxamide acetate]
DSC thermograph change following compression [7]: reduction in the intensity and temperature of the melt endotherm
XRPD pattern change following compression [7]: subtle reduction in diffraction resolution

aqueous solubility [6]: about 7.2 mg/mL
Molecule: CC(=O)O.N=C(N)c1ccc(CNC(=O)c2cnn(Cc3ccccc3)c2)cc1 [Form III, 1-benzyl-N-(4-carbamimidoylbenzyl)-1H-pyrazole-4-carboxamide acetate]

aqueous solubility [6]: about 5.5 mg/mL
TGA thermograph change following compression [7]: slight increase in the water content
water content post-grinding ([8]; after grinding): 3.93 wt %
water content at point of production ([8]; before grinding): 2.76 wt %
Molecule: CC(=O)O.N=C(N)c1ccc(CNC(=O)c2cnn(Cc3ccccc3)c2)cc1 [Form II, 1-benzyl-N-(4-carbamimidoylbenzyl)-1H-pyrazole-4-carboxamide acetate]
DSC thermograph change following compression [7]: reduction in the intensity, but increase of the temperature of the main melt endotherm
XRPD pattern change following compression [7]: significant change in the diffraction pattern to a pattern of reduced crystallinity
change of solid form post-grinding (thermal, XRPD) ([8]; about 100 mg ground): minor alteration in reflection resolution and intensity

aqueous solubility [6]: about 7.1 mg/mL
Molecule: CC(=O)O.N=C(N)c1ccc(CNC(=O)c2cnn(Cc3ccccc3)c2)cc1 [Form V, 1-benzyl-N-(4-carbamimidoylbenzyl)-1H-pyrazole-4-carboxamide acetate]

Molecule: NC(N)=NCCC[C@@H](N)C(=O)N[C@@H](CCCN=C(N)N)C(=O)N1CCC[C@H]1C(=O)N1C[C@H](O)C[C@H]1C(=O)NCC(=O)N[C@@H](Cc1cccs1)C(=O)N[C@@H](CO)C(=O)N1Cc2ccccc2C[C@@H]1C(=O)N1[C@H](C(=O)N[C@@H](CCCN=C(N)N)C(=O)O)C[C@@H]2CCCC[C@@H]21 [icatibant]
effect on hereditary angioedema [5]: effective

B1: C1-INH: the major endogenous inhibitor of PK (protein, UniProt P05155 23-500, looked up)
Plasma protease C1 inhibitor: NPNATSSSSQDPESLQDRGEGKVATTVISKMLFVEPILEVSSLPTTNSTTNSATKITANTTDEPTTQPTTEPTTQPTIQPTQPTTQLPTDSPTQPTTGSFCPGPVTLCSDLESHSTEAVLGDALVDFSLKLYHAFSAMKKVETNMAFSPFSIASLLTQVLLGAGENTKTNLESILSYPKDFTCVHQALKGFTTKGVTSVSQIFHSPDLAIRDTFVNASRTLYSSSPRVLSNNSDANLELINTWVAKNTNNKISRLLDSLPSDTRLVLLNAIYLSAKWKTTFDPKKTRMEPFHFKNSVIKVPMMNSKKYPVAHFIDQTLKAKVGQLQLSHNLSLVILVPQNLKHRLEDMEQALSPSVFKAIMEKLEMSKFQPTLLTLPRIKVTTSQDMLSIMEKLEFFDFSYDLNLCGLTEDPDLQVSAMQHQTVLELTETGVEAAAASAISVARTLLVFEVQQPFLFVLWDQQHKFPVFMGRVYDPRA
infarct size [9]: reduced infarct size
